In experiment [1] the target is T1, F508delCFTR (Homo sapiens, UniProt P13569, DEL508-508).
T1 construct: expressed in transfected cells; host or cells: CFBE41o- human lung-derived epithelial cells (CFBE41o-F508delCFTR-HRP), doxycycline-inducible
Nature of the experiment: Cell Surface Expression-Horse Radish Peroxidase (CSE-HRP) assay, test compound with co-corrector.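 For Maximum % activity (with co-corrector): percent of 2 µM positive control corrector over DMSO; co-corrector is that same compound.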 It is filed as cell-based. To be noted: with 2 μM co-corrector; for Maximum % activity (with co-corrector): maximum at any tested concentration, normalized to positive control. A digest of the protocol: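 Surface-expression read-out: luminol luminescence from an HRP tag in the fourth exofacial loop of F508delCFTR, in doxycycline-induced (0.5 μg/mL, 72 h) CFBE41o- cells. Compound plus 2 μM co-corrector added for 18-24 h at 33° C., 8-point 3-fold series up to 20 μM. EC50 from a sigmoidal fit with variable Hill slope, normalised to positive control, triplicate plates.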

Experiment [2] concerns the target T1, F508delCFTR. As to the kind of experiment: Cell Surface Expression-Horse Radish Peroxidase (CSE-HRP) assay, test compound without co-corrector.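 For Emax: percent of on-plate 2 µM positive control corrector response over DMSO.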 Conditions: for Emax: maximum at any tested concentration, normalized to positive control, without co-corrector; for pEC50: test compound without co-corrector. In kind it is cell-based. A digest of the protocol: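 Compound without co-corrector was tested at eight 3-fold concentrations, top 20 μM, for 18-24 h at 33° C on doxycycline-induced (0.5 μg/mL, 72 h) CFBE41o- F508delCFTR-HRP cells. After DPBS washes, luminol luminescence gave % activity relative to on-plate positive control minus DMSO; EC50 came from triplicate-plate sigmoidal fitting.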

SMILES strings stand for the structures. pEC50: −log10 of the molar value.

The results in this text go back to patent US20180244611A1, “Modulators of the Cystic Fibrosis Transmembrane Conductance Regulator Protein and Methods of Use” (AbbVie S.à.r.l., priority 2017, published 2018).

T1 sequence (P13569 with tags, fused parts or gaps DEL508-508): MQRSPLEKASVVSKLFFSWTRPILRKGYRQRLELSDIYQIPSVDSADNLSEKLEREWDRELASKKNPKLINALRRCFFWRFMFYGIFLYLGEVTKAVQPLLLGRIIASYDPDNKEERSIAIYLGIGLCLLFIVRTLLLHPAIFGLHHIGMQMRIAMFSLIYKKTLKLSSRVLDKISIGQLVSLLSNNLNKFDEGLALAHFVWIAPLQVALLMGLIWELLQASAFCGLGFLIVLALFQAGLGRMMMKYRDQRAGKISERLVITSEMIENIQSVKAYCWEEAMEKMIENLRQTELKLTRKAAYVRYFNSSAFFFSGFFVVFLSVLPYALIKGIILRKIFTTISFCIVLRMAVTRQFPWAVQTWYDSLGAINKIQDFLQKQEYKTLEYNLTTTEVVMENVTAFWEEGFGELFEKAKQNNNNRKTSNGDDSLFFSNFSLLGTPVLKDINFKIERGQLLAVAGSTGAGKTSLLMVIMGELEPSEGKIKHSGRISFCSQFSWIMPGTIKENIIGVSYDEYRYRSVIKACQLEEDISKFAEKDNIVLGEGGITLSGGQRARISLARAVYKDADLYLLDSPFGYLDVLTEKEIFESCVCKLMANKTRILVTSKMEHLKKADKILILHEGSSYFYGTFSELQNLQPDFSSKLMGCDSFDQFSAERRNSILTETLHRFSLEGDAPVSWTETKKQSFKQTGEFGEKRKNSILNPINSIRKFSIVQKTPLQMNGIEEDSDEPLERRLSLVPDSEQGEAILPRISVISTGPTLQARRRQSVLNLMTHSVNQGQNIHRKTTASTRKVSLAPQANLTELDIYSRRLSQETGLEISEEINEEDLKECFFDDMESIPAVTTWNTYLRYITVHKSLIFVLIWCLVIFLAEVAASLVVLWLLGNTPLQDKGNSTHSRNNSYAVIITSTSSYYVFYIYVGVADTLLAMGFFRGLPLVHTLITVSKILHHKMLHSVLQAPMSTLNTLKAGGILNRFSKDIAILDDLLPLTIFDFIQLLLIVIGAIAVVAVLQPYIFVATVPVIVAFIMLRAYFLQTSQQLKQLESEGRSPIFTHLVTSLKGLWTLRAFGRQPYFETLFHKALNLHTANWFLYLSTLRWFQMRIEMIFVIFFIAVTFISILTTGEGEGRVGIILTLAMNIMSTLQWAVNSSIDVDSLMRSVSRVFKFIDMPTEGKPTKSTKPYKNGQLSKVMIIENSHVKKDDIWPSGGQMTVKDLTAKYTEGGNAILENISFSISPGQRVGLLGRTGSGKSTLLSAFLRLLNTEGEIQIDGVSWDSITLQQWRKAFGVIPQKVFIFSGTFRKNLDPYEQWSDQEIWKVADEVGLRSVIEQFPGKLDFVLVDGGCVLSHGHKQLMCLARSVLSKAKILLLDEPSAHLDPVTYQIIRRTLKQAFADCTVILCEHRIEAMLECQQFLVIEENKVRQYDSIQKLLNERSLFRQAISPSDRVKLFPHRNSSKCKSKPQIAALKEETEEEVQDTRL

For `COc1cccc2c1CCC2C(=O)NS(=O)(=O)c1c(C(=O)OC(C)(C)C)c(C)nn1C` (stereo not drawn) [III-68], on F508delCFTR [1], the “Maximum % activity (with co-corrector)” value is listed as “+ (<150)” and the pEC50 was no more than 5.00. Besides, on F508delCFTR [2], the Emax was less than 50% and the pEC50 was no more than 5.00.
For `COc1cccc2c1CCC2C(=O)NS(=O)(=O)c1c(CO)c(C)nn1C` (stereo not drawn) [III-69], on F508delCFTR [1], the “Maximum % activity (with co-corrector)” value is “+ (<150)” and the pEC50 is no more than 5.00. For the same compound, at F508delCFTR [2], the Emax is less than 50% and the pEC50 is no more than 5.00.
In the case of `COc1cccc2c1CCC2C(=O)NS(=O)(=O)c1cccc(Cl)c1F` (stereo not drawn) [III-70], on F508delCFTR [1], the “Maximum % activity (with co-corrector)” value is listed as “+ (<150)” and the pEC50 was no more than 5.00. Further, at F508delCFTR [2], the Emax was less than 50% and the pEC50 was no more than 5.00.
As to `COc1cccc2c1CCC2C(=O)NS(=O)(=O)c1c(F)cccc1F` (stereo not drawn) [III-71], at F508delCFTR [1], the “Maximum % activity (with co-corrector)” value was “++ (≥150 and <350)”; the pEC50 is 5.00 to 5.52. At F508delCFTR [2], this compound gave an Emax of less than 50% and a pEC50 of no more than 5.00.
For the compound `COc1ccc2c(c1OC)CCC2C(=O)NS(=O)(=O)c1ccccc1C` (stereo not drawn) [III-72], at F508delCFTR [1], the “Maximum % activity (with co-corrector)” value is “+ (<150)” and the pEC50 was no more than 5.00. At F508delCFTR [2], this compound gave a maximal effect (Emax) of less than 50% and a pEC50 of no more than 5.00.
On to `COc1cccc2c1CCC2C(=O)NS(=O)(=O)c1cc(Cl)ccc1F` (stereo not drawn) [III-73], for which, on F508delCFTR [1], the “Maximum % activity (with co-corrector)” value is “+ (<150)” and the negative logarithm of the EC50 (pEC50) was no more than 5.00. Further, at F508delCFTR [2], the Emax was less than 50% and the pEC50 was no more than 5.00.
Consider `COc1cccc2c1CCC2C(=O)NS(=O)(=O)c1cc(F)ccc1F` (stereo not drawn) [III-74], for which, at F508delCFTR [1], the “Maximum % activity (with co-corrector)” value is reported as “+ (<150)” and the pEC50 was no more than 5.00. Moreover, on F508delCFTR [2], the Emax is less than 50% and the pEC50 is no more than 5.00.
With `COc1cccc2c1CCC2C(=O)NS(=O)(=O)c1cc(F)ccc1Cl` (stereo not drawn) [III-75], at F508delCFTR [1], the “Maximum % activity (with co-corrector)” value is “+ (<150)” and the pEC50 was no more than 5.00. At F508delCFTR [2], this compound showed an Emax of less than 50% and a pEC50 of no more than 5.00.
As to `COc1cccc2c1CCC2C(=O)NS(=O)(=O)c1c(Cl)cccc1Cl` (stereo not drawn) [III-76], at F508delCFTR [1], the “Maximum % activity (with co-corrector)” value is on record as “+ (<150)” and the pEC50 was no more than 5.00. At F508delCFTR [2], this compound showed a maximum response (Emax) of less than 50% and a pEC50 of no more than 5.00.
In the case of `COc1cccc2c1CCC2C(=O)NS(=O)(=O)c1ccc(F)cc1F` (stereo not drawn) [III-77], on F508delCFTR [1], the “Maximum % activity (with co-corrector)” value was “+ (<150)” and the pEC50 is no more than 5.00. At F508delCFTR [2], this compound gave an Emax of less than 50% and a pEC50 of no more than 5.00.
Regarding `COCCn1cc(S(=O)(=O)NC(=O)C2CCc3c(OC)cccc32)cn1` (stereo not drawn) [III-78], at F508delCFTR [1], the “Maximum % activity (with co-corrector)” value is “+ (<150)” and the pEC50 is no more than 5.00. Besides, on F508delCFTR [2], the Emax is less than 50% and the pEC50 is no more than 5.00.
Consider `COc1cccc2c1CCC2C(=O)NS(=O)(=O)c1c(C)noc1C` (stereo not drawn) [III-79], for which, at F508delCFTR [1], the “Maximum % activity (with co-corrector)” value is listed as “+ (<150)” and the pEC50 was no more than 5.00. At F508delCFTR [2], this compound had an Emax of less than 50% and a pEC50 of no more than 5.00.
Consider `COc1cccc2c1CCC2C(=O)NS(=O)(=O)c1sc(C)nc1C` (stereo not drawn) [III-80], for which, at F508delCFTR [1], the “Maximum % activity (with co-corrector)” value is “+ (<150)” and the pEC50 is no more than 5.00. For the same compound, on F508delCFTR [2], the Emax was less than 50% and the pEC50 was no more than 5.00.
For `COc1cccc2c1CCC2C(=O)NS(=O)(=O)c1cccnc1` (stereo not drawn) [III-81], at F508delCFTR [1], the “Maximum % activity (with co-corrector)” value was “+ (<150)” and the pEC50 is no more than 5.00. Besides, at F508delCFTR [2], the Emax was less than 50% and the negative-log EC50 (pEC50) is no more than 5.00.
In the case of `COc1cccc2c1CCC2C(=O)NS(=O)(=O)c1ncccc1C(=O)N(C)C` (stereo not drawn) [III-82], at F508delCFTR [1], the “Maximum % activity (with co-corrector)” value was “+ (<150)” and the pEC50 was no more than 5.00. At F508delCFTR [2], the Emax was less than 50% and the pEC50 was no more than 5.00.
With `COc1cccc2c1CCC2C(=O)NS(=O)(=O)c1cccnc1C#N` (stereo not drawn) [III-83], on F508delCFTR [1], the “Maximum % activity (with co-corrector)” value was “+ (<150)” and the pEC50 is no more than 5.00. Besides, on F508delCFTR [2], the Emax was less than 50% and the pEC50 was no more than 5.00.
Turning to `COc1cccc2c1CCC2C(=O)NS(=O)(=O)c1ccccn1` (stereo not drawn) [III-84], at F508delCFTR [1], the “Maximum % activity (with co-corrector)” value is “+ (<150)” and the pEC50 is no more than 5.00. Moreover, on F508delCFTR [2], the Emax is less than 50% and the pEC50 was no more than 5.00.
Turning to `COc1ccc(-c2cccc3c2CCC3C(=O)NS(=O)(=O)c2ccccc2C)cn1` (stereo not drawn) [III-85], on F508delCFTR [1], the “Maximum % activity (with co-corrector)” value was “++ (≥150 and <350)”; the pEC50 is 5.00 to 5.52. At F508delCFTR [2], this compound showed an Emax of less than 50% and a pEC50 of no more than 5.00.

One may read the pEC50 as the EC50 on a negative log10 scale, so that one unit is a factor of ten. A low value points to a high EC50. The term Emax denotes the maximal effect, on the per cent scale that the assay sets.
